Results published in publication PMC10338423, “Synthesis and preclinical evaluation of a novel fluorine-18 labeled small-molecule PET radiotracer for imaging of CXCR3 receptor in mouse models of atherosclerosis” (EJNMMI Research, 2023).

Assays:
[1] = Stability of formulated radiotracer (HPLC); format: physicochemical; details: formulated in 10% EtOH/0.9% saline containing 0.5% sodium ascorbate
Method: The addition of AcOH and the high temperature was necessary for an improved RCC. A usual C18 SPE workup followed by semi-preparative reverse phase HPLC purification afforded [^18F]1 in RCY of 13 ± 2% (n = 10) at the end of synthesis (EOS). The semi-preparative HPLC chromatograms of [^18F]1 is shown in Additional file 1: Fig. S1(a). The HPLC purification was performed using a Phenomenex Gemini C18 Semi-preparative column (5 µm, 250 × 10 mm) equipped with UV (254 nm) and radioactivity detectors by eluting with an isocratic mobile phase composed of 65% MeCN, 5% MeOH, 30% water, and 0.1% triethylamine (NEt3) at a flow rate of 5 mL/min. The radioactive [^18F]1 was collected between 16 and 17 min and was well-separated from the rest of the UV and radioactivity peaks. After the purification, the collected product was formulated in 10% EtOH/0.9% saline containing 0.5% sodium ascorbate. The total radiosynthesis time was 100 min at the EOS. The final reformulated aliquot was further characterized by HPLC analysis using a Phenomenex Gemini C18 analytical column (5 µm, 250 × 4.6 mm) equipped with UV and radioactivity detectors by eluting with the same HPLC solvent at a flow rate of 1 mL/min. The radioactive peak was eluted between 15 and 17 min. […]

[2] = Biodistribution study in normal C57BL/6 mice; format: in vivo, mouse
Method: Biodistribution studies were also performed to discover the drug distribution within normal mice. 17-week-old male and female C57BL/6 mice were purchased to match the age of the imaging study group. [^18F]1 was intravenously injected into these mice (N = 4/time point), then they were sacrificed at 10, 30, and 60 min after the injection. Their major organs, including the brain, blood, lung, liver, stomach, heart, spleen, kidney, muscle, bone, large intestine, small intestine, aorta, liquinal lymph nodes (LN), interscapular BAT, and tail, were harvested. Their radioactivity was counted by an automated γ-counter. The biodistribution was calculated as an average of the percent injected dose per gram tissue (%ID/g tissue) where the counted radioactivity of each organ was divided by the weight of each tissue and the total radioactivity that circulated in the mouse body at the time of the euthanasia.
Seventeen-week-old male and female C57BL/6 mice were purchased to match the age of PET imaging mice. They were anesthetized in the anesthesia chamber using 3% isoflurane in oxygen and received 0.74–1.11 MBq of [^18F]1 in 100 μL of 5–10% EtOH in saline containing 0.5% sodium ascorbate. The injected mice were returned to their cages and free until the time of the study. At 10, 30, and 60 min after the [^18F]1 administration, each mouse (N = 4/time point) was anesthetized again and euthanized by cervical dislocation followed by cardiac puncture to take a blood sample. Then, the following organs were harvested: the brain, blood, heart, liver, lung, stomach, large intestine, small intestine, spleen, kidney, bone, muscle, liquinal LN, interscapular BAT, and tail. The radioactivity of each organ was counted by a PerkinElmer Wallac 1480 Wizard^3 Gamma Counter (Waltham, MA). The whole radioactivity that went into the circulation of the mouse was calculated by subtracting the residual radioactivity in the tail from the injected radioactivity. Therefore, the biodistribution was calculated as an average of the percent injected dose per gram of tissue (%ID/g tissue) by dividing the measured radioactivity by the whole radioactivity that actually went into the body and the weight of the tissue.

[3] = 10 min p.i., i.v., C57BL/6 mice

- time radiotracer is stable [1]: more than 10 h
- uptake in BAT [2, 3]: 15 % ID/g
- uptake in aorta [2, 3]: 13 % ID/g
- uptake in heart [2, 3]: 12 % ID/g
- uptake in kidney [2, 3]: 22 % ID/g
- uptake in liver [2, 3]: 12 % ID/g
- uptake in lung [2, 3]: 27 % ID/g
- uptake remaining relative to 10 min p.i. (lung, kidney, BAT, aorta, heart) ([2]; 30 min p.i.): ~ 60%
- uptake in liver ([2]; 30 min p.i., i.v., C57BL/6 mice): 22 % ID/g
- uptake remaining relative to 10 min p.i. (lung, kidney, BAT, aorta, heart) ([2]; 60 min p.i.): ~ 40%
Compound: CC[C@H]1CN(c2ncc(-c3nnco3)cc2Cl)CCN1C1CCN(Cc2ccc(Cl)cc2[18F])CC1 [[^18F]1]
